Here are results for 11 compounds from US20200345745A1 (University of Leicester, priority 2017, published 2020).

The subject of one test is KMO. Conditions: literature value; read-out: IC50 (KMO inhibition); cited from earlier work.
Test [1] has as its target T1, recombinant Homo Sapiens kynurenine 3-monooxygenase (HsKMO) (Homo sapiens, UniProt O15229).
T1 construct: The gene encoding full-length human KMO was synthesized; glutathione S-transferase (GST; vector pAcGHLT-A); made in house; host or cells: Hi5 insect cells (baculovirus)
The test can be described thus: Inhibition of recombinant Homo sapiens KMO (NADPH consumption at 340 nm). It counts as biochemical. The note with it: 0.5 μM HsKMO, L-Kyn 250 μM, NADPH 200 μM, pH 8.0, triplicate. As to the method: The gene encoding full-length human KMO was synthesized (GeneScript) and codon optimized for overexpression in […]. The gene was subcloned into the baculovirus transfer vector pAcGHLT-A-glutathione S-transferase as a Ndel-EcoRI fragment and transfected into Hi5 cells along with linearized baculovirus using the following sense and antisense primers: […]
Cultured cells were lysed in 20 mM potassium phosphate buffer, pH 7.5, 10% glycerol, 0.5% n-dodecyl β-D-maltoside (DDM), 150 mM NaCl, 7 mM 2-mercaptoethanol and 50 μM FAD supplemented with protease inhibitors (Sigma-Aldrich). Soluble lysate was incubated with 3 ml pre-equilibrated glutathione uniflow resin (Clontech). […] Fractions (0.5 ml) were eluted with buffer C (buffer B+33 mM glutathione) and fractions containing KMO pooled, concentrated and loaded onto a Superdex 200 (10/30) size-exclusion chromatography column. Pure KMO was pooled and stored at −80° C.
(§1) KMO activity was measured in the presence of a range of compound concentrations by monitoring the consumption of NADPH at 340 nm upon addition of enzyme via a Cary 50 UV-Vis spectrophotometer (Agilent Technologies). All measurements were performed in triplicate. The IC50 values for each compound were obtained by plotting the percentage inhibition versus the inhibitor concentration and fitting to the Morrison equation using Origin 9.0 software (OriginLab, Northampton, Mass.).

The target of test [2] is recombinant P. fluorescens kynurenine 3-monooxygenase (PfKMO) (Pseudomonas fluorescens, UniProt Q84HF5, C252S/C461S). The test can be described thus: biochemical. As to the method: Protein was expressed by growing transformed cells in auto induction LB medium (Fermentas) containing 100 μg/mL for 24 hours at 22° C. […] The cell lysate was centrifuged at 180,000 g for 1 hour at 4° C. to remove cell debris. The soluble cell lysate was loaded onto Q-sepharose column equilibrated with anion exchange buffer (20 mM HEPES pH 7.5, 1 mM DTT with 10 mM NaCl) and bound protein was eluted with a gradient (5 column volumes) of increasing NaCl concentration from 50 to 100 mM in anion exchange buffer. Fractions containing KMO were pooled and precipitated in 50% saturated ammonium sulphate by adding precipitation buffer (20 mM HEPES pH 7.5, 3 M ammonium sulphate, 1 mM DTT). The precipitated protein was pelleted by centrifugation at 12,000 g for 20 min, resuspended in a small volume of size exclusion buffer (20 mM HEPES pH 7.0, 150 mM sodium acetate, 1 mM DTT) and passed down a Superdex 75 column. Pure PfKMO was pooled and stored at −80° C.
Chain of recombinant P. fluorescens kynurenine 3-monooxygenase (PfKMO) (Q84HF5 whole entry C252S/C461S): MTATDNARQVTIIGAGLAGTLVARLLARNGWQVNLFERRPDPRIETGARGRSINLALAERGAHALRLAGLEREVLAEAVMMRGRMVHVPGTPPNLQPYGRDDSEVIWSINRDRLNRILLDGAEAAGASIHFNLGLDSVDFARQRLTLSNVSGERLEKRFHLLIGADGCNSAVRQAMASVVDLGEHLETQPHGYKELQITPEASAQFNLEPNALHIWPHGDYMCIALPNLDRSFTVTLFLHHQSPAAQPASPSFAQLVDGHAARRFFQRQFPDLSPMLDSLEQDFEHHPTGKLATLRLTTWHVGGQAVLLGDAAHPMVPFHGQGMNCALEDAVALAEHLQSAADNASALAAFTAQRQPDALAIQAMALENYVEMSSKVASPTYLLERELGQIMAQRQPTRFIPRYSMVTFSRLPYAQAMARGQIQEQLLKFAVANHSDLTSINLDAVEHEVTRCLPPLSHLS
as §1

Each structure is given as a SMILES string. pIC50: −log10 of the molar value. Read-outs that look alike come from different tables or passages of the source.

T1 sequence (O15229 whole entry): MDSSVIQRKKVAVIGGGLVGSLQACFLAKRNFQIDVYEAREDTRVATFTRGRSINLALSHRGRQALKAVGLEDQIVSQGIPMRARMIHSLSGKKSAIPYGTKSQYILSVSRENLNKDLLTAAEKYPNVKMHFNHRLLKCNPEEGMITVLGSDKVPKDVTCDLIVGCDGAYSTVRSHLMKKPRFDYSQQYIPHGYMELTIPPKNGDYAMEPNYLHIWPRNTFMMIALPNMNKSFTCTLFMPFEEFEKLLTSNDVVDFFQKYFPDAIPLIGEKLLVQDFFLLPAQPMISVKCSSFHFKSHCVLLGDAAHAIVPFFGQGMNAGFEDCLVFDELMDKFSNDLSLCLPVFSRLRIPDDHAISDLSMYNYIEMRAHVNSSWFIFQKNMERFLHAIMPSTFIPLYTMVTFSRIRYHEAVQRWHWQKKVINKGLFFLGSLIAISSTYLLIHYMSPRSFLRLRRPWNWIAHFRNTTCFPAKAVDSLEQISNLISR

What is called pIC50 is the negative decadic logarithm of the IC50, by convention in mol/L. As to `NC(CC(=O)c1ccc(Cl)c(Cl)c1)C(=O)O` (racemic) [(R,S)-3,4-dichlorobenzoylalanine], in the test with KMO, the pIC50 was 6.05. On to `COC(=O)CN1C(=O)COc2cc(C)c(Cl)c(C)c21` [Example 1, methyl 2-(6-chloro-5,7-dimethyl-3-oxo-1,4-benzoxazin-4-yl)acetate], for which the pIC50 in test [1] and in test [2] was below 4.00 in each case. As for `CCOC(=O)CN1C(=O)COc2cc(C)c(Cl)c(C)c21` [Example 2, ethyl 2-(6-chloro-5,7-dimethyl-3-oxo-1,4-benzoxazin-4-yl)acetate], the pIC50 in test [1] and in test [2] was below 4.00 each time. `Cc1cc2c(c(C)c1Cl)N(CC(=O)OC(C)C)C(=O)CO2` [Example 3, isopropyl 2-(6-chloro-5,7-dimethyl-3-oxo-1,4-benzoxazin-4-yl)acetate]: the pIC50 in test [1] and in test [2] was below 4.00 throughout.

Turning to `Cc1cc2c(c(C)c1Cl)N(CC(=O)OC(C)(C)C)C(=O)CO2` [Example 4, tert-butyl 2-(6-chloro-5,7-dimethyl-3-oxo-1,4-benzoxazin-4-yl)acetate], the pIC50 in test [1] and in test [2] was below 4.00 in each case. As to `Cc1cc2c(c(C)c1Cl)N(CC(=O)N(C)C)C(=O)CO2` [Example 6, 2-(6-chloro-5,7-dimethyl-3-oxo-1,4-benzoxazin-4-yl)-N,N-dimethyl-acetamide], the pIC50 in test [1] and in test [2] was below 4.00 throughout. `CNC(=O)CN1C(=O)COc2cc(C)c(Cl)c(C)c21` [Example 7]: the pIC50 in test [1] and in test [2] was below 4.00 in each case. As for `Cc1cc2c(c(C)c1Cl)N(CC(N)=O)C(=O)CO2` [Example 8, 2-(6-chloro-5,7-dimethyl-3-oxo-1,4-benzoxazin-4-yl)acetamide], the pIC50 in test [1] and in test [2] was below 4.00 throughout.

With `Cc1cc2c(c(C)c1Cl)N(Cc1nn[nH]n1)C(=O)CO2` [Example 9, 6-chloro-5,7-dimethyl-4-(2H-tetrazol-5-ylmethyl)-1,4-benzoxazin-3-one], the pIC50 in test [1] was 5.89; in test [2] (read-out: IC50 for PfKMO inhibition, 0.1 μM PfKMO, L-Kyn 250 μM, NADPH 200 μM, pH 7.5, triplicate) it was 4.77. With `O=C(O)CCn1c(=O)oc2cc(Cl)c(Cl)cc21` [GSK180], the pIC50 with KMO is […]. As for `O=C(O)[C@H]1C[C@@H]1C(=O)c1ccc(Cl)c(Cl)c1` [UPF-648], the pIC50 in the test with KMO was 7.70.
